Measurements taken from patent US4983622A, “6-substituted-4-dialkylaminotetrahydrobenz(c,d)indoles” (Eli Lilly and Company, priority 1985, dated 1991).

Tests used:
[1] = system: dopamine uptake, bovine striatal membrane; settings: in vitro; cited from earlier work
[2] = system: serotonin; settings: Harris and Uhle; cited from earlier work
[3] = target: T1, ^3 H-spiperone receptor binding, rat cerebral cortex membranes (Rattus norvegicus, UniProt P14842); test: Receptor binding, inhibition of specific ^3 H-spiperone binding; parameters: species or system male Wistar rats; settings: 15 min at 37°, pH 7.4, 0.6-0.7 nM ^3 H-spiperone, read-out: ^3 H-Ligand-IC50, ^3 H-SPIP
T1 construct: The cerebral cortex was dissected out and then homogenized and centrifuged; from tissue; host or cells: cerebral cortex membranes of male Wistar rats
T1 sequence (P14842 whole entry): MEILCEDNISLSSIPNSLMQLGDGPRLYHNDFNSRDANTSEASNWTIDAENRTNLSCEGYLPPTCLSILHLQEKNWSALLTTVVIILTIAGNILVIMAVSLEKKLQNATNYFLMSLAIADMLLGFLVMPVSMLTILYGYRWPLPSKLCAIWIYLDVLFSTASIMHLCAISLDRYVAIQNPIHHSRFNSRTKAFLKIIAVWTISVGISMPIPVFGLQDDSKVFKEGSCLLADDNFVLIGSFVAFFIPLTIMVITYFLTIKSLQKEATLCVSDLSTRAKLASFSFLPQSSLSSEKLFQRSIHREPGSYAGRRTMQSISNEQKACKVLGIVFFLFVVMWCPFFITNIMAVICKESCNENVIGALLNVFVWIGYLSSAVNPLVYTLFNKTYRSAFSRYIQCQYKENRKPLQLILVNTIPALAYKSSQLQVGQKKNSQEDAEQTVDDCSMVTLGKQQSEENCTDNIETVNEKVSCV
Description: The cerebral cortex was dissected out and then homogenized and centrifuged according to the method described by Nelson and coworkers Mol. Pharmacol., 14, 983-995 (1978), using preincubation in buffer without added monoamine oxidase inhibitor in order to eliminate endogenous serotonin. For receptor binding, each sample contained 300-400 μg. of membrane protein and 10 μM pargyline in addition to the ^3 H-ligand in 1 ml. of 0.05 M Tris buffer, pH=7.4. The assay of serotonin binding was done following the method of Bennett and Snyder, Mol. Pharmacol., 12, 373-389 (1976), and that for tritiated spiperone according to Peroutka and Snyder, Mol. Pharmacol. 16 687-699 (1979). The samples were incubated for 15 minutes at 37° and were then filtered through GF/C glass fiber filter pads using a Brandel M-24 cell harvester modified for receptor binding. After two 5 ml. rinses, the filter discs were put into scintillation vials and counted in 10 ml. of Amersham PCS scintillation fluid. Nonspecific binding of ^3 H-serotonin (^3 H-5HT) was determined in the presence of 10^-5 M serotonin and of ^3 H-spiperone in the presence of 10^-6 M LSD. Specific binding was calculated as the difference between total binding with no added nonradioactive compound and the nonspecific binding.

[4] = system: serotonin metabolites in brain (5HIAA in hypothalamus); test: Decrease of serotonin metabolite (5HIAA) in hypothalamus; type: in vivo, Wistar rats; settings: 0.3 mg/kg s.c., 1 hour; control 2.59 ± .11; * statistically significant
Description: (§1) Secondly, as a measure of central serotonin agonist activity, the decrease of serotonin metabolites in brain was measured. Also the measure of dopamine agonist activity was indicated by changes in dopamine metabolites.
(§2) The following protocol was employed. 150-200 g. Wistar rats were given 0.3 mg/kg subcutaneously of (±)-4-di-n-propylamino-6-substituted-1,3,4,5-tetrahydrobenz[c,d]indole.Then, 60 minutes later each rat was decapitated and the hypothalamus and striatum were dissected out and extracted. The amounts of homovanillic acid (HVA) and 3,4-dihydroxyphenylacetic acid (DOPAC) in the striatum and of 5-hydroxyindoleacetic acid (5HIAA) in the hypothalamus were measured by high-performance liquid chromatography, using electrochemical detection. Serum corticosteroids were also measured. In the table, columns 1 and 2 give the substitution pattern in the compounds of formula IV, columns 3-5, the 5HT or dopamine metabolite concentrations, and column 6, the serum corticosteroids.
(§3) Compounds were injected at 0.3 mg/kg s.c. 1 hour before rats were killed.

[5] = system: serum corticosteroids; test: Serum corticosterone; type: in vivo, Wistar rats; settings: 0.3 mg/kg s.c., 1 hour; control 7 ± 1; * statistically significant
Description: as §2, §3

[6] = system: dopamine metabolites in striatum; test: Changes in dopamine metabolites (DOPAC, HVA) in striatum; type: in vivo, Wistar rats; settings: 0.3 mg/kg s.c., 1 hour, * statistically significant; for Dopamine Metabolites In Striatum, HVA: control 4.24 ± .27; for Dopamine Metabolites In Striatum, DOPAC: control 5.58 ± .38
Description: as §1, §2, §3

[7] = target: ^3 H-serotonin (^3 H-5HT) receptor binding, rat cerebral cortex membranes; test: Receptor binding, inhibition of specific ^3 H-5HT (tritiated serotonin) binding; parameters: species or system male Wistar rats; settings: 15 min at 37°, pH 7.4, 2-3 nM ^3 H-serotonin, read-out: ^3 H-Ligand-IC50, ^3 H-5HT
[8] = system: serotonin turnover in brain (5-HTP accumulation); test: 5-HTP accumulation in hypothalamus after decarboxylase block by m-hydroxybenzylhydrazine (serotonin turnover); type: in vivo, Wistar rats
Description: Thirdly, as a measure of central serotonin agonist activity, the test rats received (±)-4-di-n-propylamino-6-methoxy-1,3,4,5-tetrahydrobenz[c,d]indole. The decrease of serotonin turnover in brain was measured as a function of 5-hydroxytryptophane (5-HTP) accumulation when the decarboxylation of 5-HTP is blocked by m-hydroxybenzylhydrazine, using the above protocol, except that thirty minutes after injection of the drug, m-hydroxybenzylhydrazine was injected at 100 mg./kg. i.p. Then, 40 minutes later each rat was decapitated, the hypothalamus dissected out and extracted. The amount of 5-HTP in each extract were measured by high-performance liquid chromatography, using electrochemical detection. In normal rats, 5-HTP brain levels are so low as to be virtually undetectable. Thus, the control group received the same dose of m-hydroxybenzylhydrazine as the test rats but no drug.

| SMILES | selective dopamine agonist, action in inhibiting dopamine uptake [1] | serotonin antagonism [2] | IC50 [3] [nM] | 5HIAA In Hypothalamus [4] | Serum Corticosterone [5] [MCG/100 ML] | Dopamine Metabolites In Striatum, HVA [6] | Dopamine Metabolites In Striatum, DOPAC [6] | IC50 [7] [nM] | 5HTP Level in Nanomoles of Hypothalamus ± S.E. ([8]; 0.03 mg/kg, m-hydroxybenzylhydrazine 100 mg/kg i.p., zero dose 1.81 ± 0.11) [Nanomoles] | 5HTP Level in Nanomoles of Hypothalamus ± S.E. ([8]; 0.10 mg/kg, m-hydroxybenzylhydrazine 100 mg/kg i.p., zero dose 1.81 ± 0.11, * P < .05) [Nanomoles] | 5HTP Level in Nanomoles of Hypothalamus ± S.E. ([8]; 0.30 mg/kg, m-hydroxybenzylhydrazine 100 mg/kg i.p., zero dose 1.81 ± 0.11, * P < .05) [Nanomoles] | 5HTP accumulation ([8]; certain dose levels, hypothalamus) | 5HTP Level in Nanomoles of Hypothalamus ± S.E. ([8]; ip, 0.01 mg/kg) [Nanomoles] |
| --- | --- | --- | --- | --- | --- | --- | --- | --- | --- | --- | --- | --- | --- |
| CCCN(CCC)C1Cc2cccc3[nH]cc(c23)C1 (racemic) [(±)-4-di-n-propylamino-1,3,4-5-tetrahydrobenz[c,d]indole] | selective dopamine agonist |  |  |  |  |  |  |  |  |  |  |  |  |
| CC(=O)NC1Cc2c[nH]c3cccc(c23)C1=O (stereo not shown) [4-acetylamino-5-oxo derivative] |  | one exception |  |  |  |  |  |  |  |  |  |  |  |
| COc1ccc2[nH]cc3c2c1CC(N(C)C)C3 (racemic) [(±)-4-dimethylamino-6-methoxy-1,3,4,5-tetrahydrobenz[c,d]indole] |  |  | 1490 | 1.69 ± .07 NMoles/G | 41 ± 4 | 4.68 ± .21 NMoles/G | 7.15 ± .23 NMoles/G | 70 |  |  |  |  |  |
| CCCN(CCC)C1Cc2c[nH]c3ccc(OC)c(c23)C1 (racemic) [(±)-4-di-n-propylamino-6-methoxy-1,3,4,5-tetrahydrobenz[c,d]indole] |  |  | 950 | 1.51 ± .05 NMoles/G | 48 ± 2 | 2.43 ± .18 NMoles/G | 4.61 ± .10 NMoles/G | 50 | 1.72 ± 0.07 | 1.16 ± 0.05 | 0.97 ± 0.03 | significantly decreased 5HTP accumulation | 1.85 ± 0.06 |
